Assays:
Assay type in all cases: in vivo
[1] = system: Ipomoea hederacea (IPOHE, morning glory); experiment: Post-emergence herbicidal evaluation; settings: 3 weeks after treatment
Protocol: (§1) These acetone solutions are diluted with water and the resulting formulations applied at dosage levels equivalent of about 0.025 to 0.4 kg per hectare of test compound per pot. After spraying the plants are placed on greenhouse benches and are cared for in the usual manner, commensurate with conventional greenhouse practices. From 3 weeks after treatment, the seedling plants are examined and rated according to the rating system provided above. A rating 0 indicates growth as untreated control, a rating 9 indicates death.

[2] = system: Stellaria media (STEME, chickweed); experiment: Post-emergence herbicidal evaluation; settings: 3 weeks after treatment
Protocol: as §1

[3] = system: Matricaria inodora (MATIN, mayweed); experiment: Post-emergence herbicidal evaluation; settings: 3 weeks after treatment
Protocol: as §1

[4] = system: Dolium multiflorum (LOLMU, ryegrass); experiment: Post-emergence herbicidal evaluation; settings: rate 0.100 kg/ha, 3 weeks after treatment
Protocol: as §1

[5] = system: Setaria viridis (SETVI, green foxtail); experiment: Post-emergence herbicidal evaluation; settings: 3 weeks after treatment
Protocol: as §1

[6] = system: Galium aparine (GALAP, cleaver); experiment: Post-emergence herbicidal evaluation; settings: 3 weeks after treatment
Protocol: as §1

[7] = system: Alopecurus myosuroides (ALOMY, black grass); experiment: Post-emergence herbicidal evaluation; settings: 3 weeks after treatment
Protocol: as §1

[8] = system: Echinochloa grus galli (ECHCG, barnyard grass); experiment: Post-emergence herbicidal evaluation; settings: 3 weeks after treatment
Protocol: as §1

[9] = system: Abutilon theophrasti (ABUTH, velvetleaf); experiment: Post-emergence herbicidal evaluation; settings: 3 weeks after treatment
Protocol: as §1

[10] = system: Triticum aestivum (TRZAW, winter wheat); experiment: Pre-emergence herbicidal evaluation (crop); settings: 3 weeks after treatment
Text: (§2) The pre-emergence herbicidal activity of the compounds of the present invention is exemplified by the following test in which the seeds of a variety of monocotyledonous and dicotyledonous plants are seperately mixed with potting soil and planted on top of approximately one inch of soil in separate post. After planting, the pots are sprayed with the selected aqueous acetone solution. containing test compound in sufficient quantity to provide the equivalent of about 0.025 to 0.4 kg per hectare of test compound per pot. The treated pots are then placed on greenhouse benches, watered and cared for in accordance with conventional greenhouse procedures. From 3 weeks after treatment, the tests are terminated and each pot is examined and rated according to the rating system set forth below. [table] [table]

Zea mays (ZEAMX, maize) = experiment: Pre-emergence herbicidal evaluation (crop); settings: 3 weeks after treatment
Text: as §2

[11] = system: Glycine max (GLXMA, soyabeans); experiment: Pre-emergence herbicidal evaluation (crop); settings: 3 weeks after treatment
Text: as §2

[12] = system: Ipomoea hederacea (IPOHE, morning glory); experiment: Pre-emergence herbicidal evaluation; settings: 3 weeks after treatment
Text: as §2

[13] = system: Stellaria media (STEME, chickweed); experiment: Pre-emergence herbicidal evaluation; settings: 3 weeks after treatment
Text: as §2

[14] = system: Matricaria inodora (MATIN, mayweed); experiment: Pre-emergence herbicidal evaluation; settings: 3 weeks after treatment
Text: as §2

[15] = system: Setaria viridis (SETVI, green foxtail); experiment: Pre-emergence herbicidal evaluation; settings: 3 weeks after treatment
Text: as §2

[16] = system: Galium aparine (GALAP, cleaver); experiment: Pre-emergence herbicidal evaluation; settings: 3 weeks after treatment
Text: as §2

[17] = system: Alopecurus myosuroides (ALOMY, black grass); experiment: Pre-emergence herbicidal evaluation; settings: 3 weeks after treatment
Text: as §2

[18] = system: Echinochloa grus galli (ECHCG, barnyard grass); experiment: Pre-emergence herbicidal evaluation; settings: 3 weeks after treatment
Text: as §2

[19] = system: Abutilon theophrasti (ABUTH, velvetleaf); experiment: Pre-emergence herbicidal evaluation; settings: 3 weeks after treatment
Text: as §2

Cc1cc(OCC=C(Cl)SC(F)(F)F)nc(Oc2cc(C(F)(F)F)nn2C)c1 [Example 5]
IPOHE rating ([1]; rate 0.025 kg/ha): 9 (9 - Complete kill)
IPOHE rating ([1]; rate 0.100 kg/ha): 9 (9 - Complete kill)
IPOHE rating ([1]; rate 0.400 kg/ha): 9 (9 - Complete kill)
STEME rating ([2]; rate 0.025 kg/ha): 4 (4 - Injury)
STEME rating ([2]; rate 0.100 kg/ha): 5 (5 - Definite injury)
STEME rating ([2]; rate 0.400 kg/ha): 7 (7 - Good herbicidal effect)
MATIN rating ([3]; rate 0.025 kg/ha): 6 (6 - Herbicidal effect)
MATIN rating ([3]; rate 0.100 kg/ha): 7 (7 - Good herbicidal effect)
MATIN rating ([3]; rate 0.400 kg/ha): 7 (7 - Good herbicidal effect)
LOLMU rating [4]: 8 (8 - Approaching complete kill)
SETVI rating ([5]; rate 0.025 kg/ha): 9 (9 - Complete kill)
SETVI rating ([5]; rate 0.100 kg/ha): 9 (9 - Complete kill)
SETVI rating ([5]; rate 0.400 kg/ha): 9 (9 - Complete kill)
GALAP rating ([6]; rate 0.025 kg/ha): 7 (7 - Good herbicidal effect)
GALAP rating ([6]; rate 0.100 kg/ha): 8 (8 - Approaching complete kill)
GALAP rating ([6]; rate 0.400 kg/ha): 8 (8 - Approaching complete kill)
ALOMY rating ([7]; rate 0.025 kg/ha): 6 (6 - Herbicidal effect)
ALOMY rating ([7]; rate 0.100 kg/ha): 7 (7 - Good herbicidal effect)
ALOMY rating ([7]; rate 0.400 kg/ha): 8 (8 - Approaching complete kill)
ECHCG rating ([8]; rate 0.025 kg/ha): 7 (7 - Good herbicidal effect)
ECHCG rating ([8]; rate 0.100 kg/ha): 8 (8 - Approaching complete kill)
ECHCG rating ([8]; rate 0.400 kg/ha): 8 (8 - Approaching complete kill)
ABUTH rating ([9]; rate 0.025 kg/ha): 7 (7 - Good herbicidal effect)
ABUTH rating ([9]; rate 0.100 kg/ha): 8 (8 - Approaching complete kill)
ABUTH rating ([9]; rate 0.400 kg/ha): 8 (8 - Approaching complete kill)
TRZAW rating ([10]; rate 0.025 kg/ha): 2 (2 - Slight effect)
TRZAW rating ([10]; rate 0.100 kg/ha): 3 (3 - Moderate effect)
TRZAW rating ([10]; rate 0.400 kg/ha): 6 (6 - Herbicidal effect)
ZEAMX rating (Zea mays (ZEAMX, maize); rate 0.025 kg/ha): 2 (2 - Slight effect)
ZEAMX rating (Zea mays (ZEAMX, maize); rate 0.100 kg/ha): 3 (3 - Moderate effect)
ZEAMX rating (Zea mays (ZEAMX, maize); rate 0.400 kg/ha): 4 (4 - Injury)
GLXMA rating ([11]; rate 0.025 kg/ha): 2 (2 - Slight effect)
GLXMA rating ([11]; rate 0.100 kg/ha): 2 (2 - Slight effect)
GLXMA rating ([11]; rate 0.400 kg/ha): 3 (3 - Moderate effect)
IPOHE rating ([12]; rate 0.025 kg/ha): 8 (8 - Approaching complete kill)
IPOHE rating ([12]; rate 0.100 kg/ha): 9 (9 - Complete kill)
IPOHE rating ([12]; rate 0.400 kg/ha): 9 (9 - Complete kill)
STEME rating ([13]; rate 0.025 kg/ha): 9 (9 - Complete kill)
STEME rating ([13]; rate 0.100 kg/ha): 9 (9 - Complete kill)
STEME rating ([13]; rate 0.400 kg/ha): 9 (9 - Complete kill)
MATIN rating ([14]; rate 0.025 kg/ha): 8 (8 - Approaching complete kill)
MATIN rating ([14]; rate 0.100 kg/ha): 8 (8 - Approaching complete kill)
MATIN rating ([14]; rate 0.400 kg/ha): 9 (9 - Complete kill)
SETVI rating ([15]; rate 0.025 kg/ha): 8 (8 - Approaching complete kill)
SETVI rating ([15]; rate 0.100 kg/ha): 9 (9 - Complete kill)
SETVI rating ([15]; rate 0.400 kg/ha): 9 (9 - Complete kill)
GALAP rating ([16]; rate 0.025 kg/ha): 5 (5 - Definite injury)
GALAP rating ([16]; rate 0.100 kg/ha): 7 (7 - Good herbicidal effect)
GALAP rating ([16]; rate 0.400 kg/ha): 7 (7 - Good herbicidal effect)
ALOMY rating ([17]; rate 0.025 kg/ha): 7 (7 - Good herbicidal effect)
ALOMY rating ([17]; rate 0.100 kg/ha): 8 (8 - Approaching complete kill)
ALOMY rating ([17]; rate 0.400 kg/ha): 8 (8 - Approaching complete kill)
ECHCG rating ([18]; rate 0.025 kg/ha): 6 (6 - Herbicidal effect)
ECHCG rating ([18]; rate 0.100 kg/ha): 8 (8 - Approaching complete kill)
ECHCG rating ([18]; rate 0.400 kg/ha): 9 (9 - Complete kill)
ABUTH rating ([19]; rate 0.025 kg/ha): 5 (5 - Definite injury)
ABUTH rating ([19]; rate 0.100 kg/ha): 8 (8 - Approaching complete kill)
ABUTH rating ([19]; rate 0.400 kg/ha): 8 (8 - Approaching complete kill)

Cc1cc(OCCSC(F)(F)F)nc(Oc2ccnc(C(F)(F)F)c2)c1 [Example 51]
IPOHE rating ([1]; rate 0.025 kg/ha): 9 (9 - Complete kill)
IPOHE rating ([1]; rate 0.100 kg/ha): 9 (9 - Complete kill)
IPOHE rating ([1]; rate 0.400 kg/ha): 9 (9 - Complete kill)
STEME rating ([2]; rate 0.025 kg/ha): 8 (8 - Approaching complete kill)
STEME rating ([2]; rate 0.100 kg/ha): 9 (9 - Complete kill)
STEME rating ([2]; rate 0.400 kg/ha): 9 (9 - Complete kill)
MATIN rating ([3]; rate 0.025 kg/ha): 4 (4 - Injury)
MATIN rating ([3]; rate 0.100 kg/ha): 6 (6 - Herbicidal effect)
MATIN rating ([3]; rate 0.400 kg/ha): 8 (8 - Approaching complete kill)
LOLMU rating [4]: 8 (8 - Approaching complete kill)
SETVI rating ([5]; rate 0.025 kg/ha): 8 (8 - Approaching complete kill)
SETVI rating ([5]; rate 0.100 kg/ha): 9 (9 - Complete kill)
SETVI rating ([5]; rate 0.400 kg/ha): 9 (9 - Complete kill)
GALAP rating ([6]; rate 0.025 kg/ha): 6 (6 - Herbicidal effect)
GALAP rating ([6]; rate 0.100 kg/ha): 9 (9 - Complete kill)
GALAP rating ([6]; rate 0.400 kg/ha): 9 (9 - Complete kill)
ALOMY rating ([7]; rate 0.025 kg/ha): 4 (4 - Injury)
ALOMY rating ([7]; rate 0.100 kg/ha): 7 (7 - Good herbicidal effect)
ALOMY rating ([7]; rate 0.400 kg/ha): 8 (8 - Approaching complete kill)
ECHCG rating ([8]; rate 0.025 kg/ha): 9 (9 - Complete kill)
ECHCG rating ([8]; rate 0.100 kg/ha): 9 (9 - Complete kill)
ECHCG rating ([8]; rate 0.400 kg/ha): 9 (9 - Complete kill)
ABUTH rating ([9]; rate 0.025 kg/ha): 7 (7 - Good herbicidal effect)
ABUTH rating ([9]; rate 0.100 kg/ha): 8 (8 - Approaching complete kill)
ABUTH rating ([9]; rate 0.400 kg/ha): 8 (8 - Approaching complete kill)
TRZAW rating ([10]; rate 0.025 kg/ha): 2 (2 - Slight effect)
TRZAW rating ([10]; rate 0.100 kg/ha): 4 (4 - Injury)
TRZAW rating ([10]; rate 0.400 kg/ha): 6 (6 - Herbicidal effect)
ZEAMX rating (Zea mays (ZEAMX, maize); rate 0.025 kg/ha): 3 (3 - Moderate effect)
ZEAMX rating (Zea mays (ZEAMX, maize); rate 0.100 kg/ha): 4 (4 - Injury)
ZEAMX rating (Zea mays (ZEAMX, maize); rate 0.400 kg/ha): 5 (5 - Definite injury)
GLXMA rating ([11]; rate 0.025 kg/ha): 4 (4 - Injury)
GLXMA rating ([11]; rate 0.100 kg/ha): 5 (5 - Definite injury)
GLXMA rating ([11]; rate 0.400 kg/ha): 6 (6 - Herbicidal effect)
IPOHE rating ([12]; rate 0.025 kg/ha): 9 (9 - Complete kill)
IPOHE rating ([12]; rate 0.100 kg/ha): 9 (9 - Complete kill)
IPOHE rating ([12]; rate 0.400 kg/ha): 9 (9 - Complete kill)
STEME rating ([13]; rate 0.025 kg/ha): 9 (9 - Complete kill)
STEME rating ([13]; rate 0.100 kg/ha): 9 (9 - Complete kill)
STEME rating ([13]; rate 0.400 kg/ha): 9 (9 - Complete kill)
MATIN rating ([14]; rate 0.025 kg/ha): 8 (8 - Approaching complete kill)
MATIN rating ([14]; rate 0.100 kg/ha): 9 (9 - Complete kill)
MATIN rating ([14]; rate 0.400 kg/ha): 9 (9 - Complete kill)
SETVI rating ([15]; rate 0.025 kg/ha): 8 (8 - Approaching complete kill)
SETVI rating ([15]; rate 0.100 kg/ha): 8 (8 - Approaching complete kill)
SETVI rating ([15]; rate 0.400 kg/ha): 9 (9 - Complete kill)
GALAP rating ([16]; rate 0.025 kg/ha): 8 (8 - Approaching complete kill)
GALAP rating ([16]; rate 0.100 kg/ha): 8 (8 - Approaching complete kill)
GALAP rating ([16]; rate 0.400 kg/ha): 8 (8 - Approaching complete kill)
ALOMY rating ([17]; rate 0.025 kg/ha): 8 (8 - Approaching complete kill)
ALOMY rating ([17]; rate 0.100 kg/ha): 8 (8 - Approaching complete kill)
ALOMY rating ([17]; rate 0.400 kg/ha): 8 (8 - Approaching complete kill)
ECHCG rating ([18]; rate 0.025 kg/ha): 7 (7 - Good herbicidal effect)
ECHCG rating ([18]; rate 0.100 kg/ha): 9 (9 - Complete kill)
ECHCG rating ([18]; rate 0.400 kg/ha): 9 (9 - Complete kill)
ABUTH rating ([19]; rate 0.025 kg/ha): 9 (9 - Complete kill)
ABUTH rating ([19]; rate 0.100 kg/ha): 9 (9 - Complete kill)
ABUTH rating ([19]; rate 0.400 kg/ha): 9 (9 - Complete kill)
